Values quoted from earlier work as cited in patent publication US7625587B2, “Hepato phyto-nutraceutical synergistic composition” (priority 2006, dated 2009).
Values belong to the compound of their own block, whether it stands above or below them.

What was measured:
[1] = tested on: bacterial resistance mechanism (multidrug pump); conditions: in the presence of 5′-MHC
hepatic mitochondria = conditions: free oxygen radical induced damage
[2] = tested on: carbon tetrachloride hepatotoxicity; conditions: mouse, in vivo
mice hepatocytes [3] = tested on: mice hepatocytes
mice hepatocytes [4] = tested on: mice hepatocytes; remark: listed apart in the source
beta-reductase = conditions: in vitro
[5] = tested on: 11_beta-hydroxysteroid dehydrogenase; conditions: in vitro
[6] = tested on: hepatic toxicity induced by paracetamol, prednisolone and bromobenzene; conditions: mice; pre-treatment during ten days

Compound: COc1cc([C@H]2Oc3cc(-c4cc(=O)c5c(O)cc(O)cc5o4)cc(OC)c3O[C@@H]2CO)ccc1O (racemic) [5′-methoxyhydnocarpin]
accumulation of berberine in the cells [1]: strong increase of accumulation of berberine

Compound: COc1cc(/C=C/C(=O)O)ccc1O [Ferulic acid, ferulic acid]
protection of hepatic mitochondria (hepatic mitochondria): protected the hepatic mitochondria

Compound: CC1(C)[C@@H](O[C@H]2O[C@H](C(=O)O)[C@@H](O)[C@H](O)[C@H]2O[C@@H]2O[C@H](C(=O)O)[C@@H](O)[C@H](O)[C@H]2O)CC[C@]2(C)[C@H]3C(=O)C=C4[C@@H]5C[C@@](C)(C(=O)O)CC[C@]5(C)CC[C@@]4(C)[C@]3(C)CC[C@@H]12 [Glycyrrhizin]
hepatic injuries induced by carbon tetrachloride [2]: prevented hepatic injuries | liberation of histamine (mice hepatocytes [3]): inhibited the liberation of histamine

Compound: CC1(C)[C@@H](O[C@H]2O[C@H](C(=O)O)[C@@H](O)[C@H](O)[C@H]2O[C@@H]2O[C@H](C(=O)O)[C@@H](O)[C@H](O)[C@H]2O)CC[C@]2(C)[C@H]3C(=O)C=C4[C@@H]5C[C@@](C)(C(=O)O)CC[C@]5(C)CC[C@@]4(C)[C@]3(C)CC[C@@H]12 [glicirricinic acid]
toxic action of carbon tetrachloride and of galactosamine (mice hepatocytes [4]): reduces the toxic action

inhibition of beta-reductase (beta-reductase): inhibits | inhibition of 11_beta-hydroxysteroid dehydrogenase [5]: inhibits
Compound: CC1(C)[C@@H](O)CC[C@]2(C)[C@H]3C(=O)C=C4[C@@H]5C[C@@](C)(C(=O)O)CC[C@]5(C)CC[C@@]4(C)[C@]3(C)CC[C@@H]12 [glycyrrhetic acid]

Compound: COc1cc(/C=C/C(=O)[O-])ccc1O.[Na+] [sodium ferulate]
drug induced hepatic toxicity [6]: improved the hepatic toxicity
